According to patent US7179824B2, “Arthropodicidal anthranilamides” (E. I. du Pont de Nemours and Company, priority 2001, dated 2007):

Compound: Cc1cc(Cl)cc(C(=O)NC(C)C)c1N(C(=O)c1cc(C(F)(F)F)n[nH]1)c1ncccc1Cl [Compound 4, N-[4-chloro-2-methyl-6-[[(1-methylethyl)amino]carbonyl]phenyl]-N-(3-chloro-2-pyridinyl)-3-(trifluoromethyl)-1H-pyrazole-5-carboxamide]
- melting point: 173 to 176 °C
